Legend:
[1] = serum levels of Dig-peptide after i.v. application, Western Blot; assay type: in vivo, mice (strain NRMI)
Experimental: To generate Dig-Cy5 complexes, 886.1 nmol of lyophilized DIG-Cy5 were added to 446.4 nmol anti-DIG-Antibody in 20 mM Histidin/140 mM NaCl pH 6.0 in 4 portions within 1 h at RT, slowly shaking. After the addition of the last portion the sample was incubated for a total of 2 h. In case of the DIG-PYY complexes, 691.7 nmol of lyophilized DIG-PYY were added to 364 nmol anti-DIG-Antibody in 20 mM Histidin/140 mM NaCl pH 6.0 and treated equally as the DIG-Cy5 complexes. The samples were applied to a Superdex 200 HiLoad 16/60 prep grade size exclusion column with 20 mM Histidin/140 mM NaCl pH6.0 as mobile phase. Fractions containing the complex were pooled and concentrated to 19.4 mg/ml (DIG-Cy5 complex) and 19.9 mg/ml (DIG-PYY complex) with a centrifugal filtration device (Vivaspin 20, 30 kDa MWCO, GE Healthcare). The protein concentration of the DIG-Cy5 containing sample was determined by the formula 4A280−(A649×CF))×dilution factor)/ε. CF is the correction factor A280nm/A649nm which was determined as 0.008. Loading of the antibody with DIG-Cy5 was calculated as 1.2 moles of DIG-Cy5 per mole antibody with the formula: (A649nm/(εCy5×protein concentration M))×dilution factor. […] All samples were filtered with a PVDF syringe filter (0.22 μm pore size) under sterile conditions.
To analyze the influence on PK parameters of antibody-complexation of the digoxigenated peptide, 32.1 nmol of the peptide DIG-moPYY, or of the corresponding antibody complexated peptide in 20 mM Histidin/140 mM NaCl pH 6.0 were applied to 2 female mice (strain NRMI) for each substance. […] About 0.1 ml blood samples were collected after the following time points: 0.08 h, 2 h and 24 h for Mouse 1 and 0.08 h, 4 h 24 h for Mouse 2. Serum samples of at least 40 μl were obtained after 1 h at RT by centrifugation (9300×g, 3 min, 4° C.). Serum samples were stored at −80° C. […] The reason for that was that we had no direct means to detect the peptide in serum samples. Therefore, we devised a Western-Blot related assay to detect digoxigenated peptide in serum. In a first step, the serum samples were separated on reducing SDS-PAGE. Because sample preparation for that included exposure of the serum to high concentrations of SDS and reducing agents, Dig-peptides can become released from the (completely denatured/unfolded)<Dig> IgG. To mediate the release of peptide from the antibody complex and separate them by SDS-PAGE, 2 μl of each serum sample was diluted in 18 μl 20 mM Histidin/140 mM NaCl pH 6.0, mixed with 6.7 μl of 4×LDS sample buffer and 3 μl of 10× sample reducing agent (NuPAGE, Invitrogen) for 5 min at 95° C. […] Digoxigenated peptides were subsequently detected on the membrane with anti-digoxygenin antibodies. […] Chemiluminescence was detected with the LumiImager F 1 (Roche) with an exposure time of 20 min. […]

NPY2 receptor = biological target: T1, NPY2 receptor (Homo sapiens, UniProt P49146); assay: cAMP assay: inhibition of Forskolin stimulated cAMP accumulation in HEK293/hNPY2R; assay type: cell-based
T1 construct: expressed in transfected cells; host or cells: HEK293/hNPY2R (grown under G418 selection)
T1 sequence (P49146 1-381): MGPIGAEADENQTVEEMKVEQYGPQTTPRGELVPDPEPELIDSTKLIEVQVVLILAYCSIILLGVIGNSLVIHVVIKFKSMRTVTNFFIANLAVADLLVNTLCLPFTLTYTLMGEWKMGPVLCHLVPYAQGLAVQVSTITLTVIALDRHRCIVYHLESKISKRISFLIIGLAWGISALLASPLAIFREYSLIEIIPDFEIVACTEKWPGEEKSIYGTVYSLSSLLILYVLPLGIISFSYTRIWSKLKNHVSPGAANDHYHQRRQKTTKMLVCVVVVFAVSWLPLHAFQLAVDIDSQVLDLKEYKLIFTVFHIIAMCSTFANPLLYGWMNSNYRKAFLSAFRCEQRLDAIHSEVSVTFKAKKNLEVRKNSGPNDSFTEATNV
Experimental: To perform the assay, on the first day, medium was discarded, and the monolayer cells were washed with 10 mL PBS per flask (T225). […] The flask was gently tapped and the cell suspension was pooled. Each flask was rinsed with 10 mL plating medium and centrifuged at 1000 rpm for 5 min. The suspension was pooled and counted. […] The plates were incubated at 37° C. overnight. […] The media and reagents were allowed to come to room temperature. […] The cell medium was tapped off with a gentle inversion of the cell plate on a paper towel. 50 μL of stimulation medium was placed per well (each concentration done in four replicates). The plates were incubated at room temperature for 30 min, and the cells were checked under a microscope for toxicity. After 30 min of treatment, the stimulation media was discarded and 50 μL/well of Assay Lysis Buffer (provided in the Tropix kit) was added. […] 20 μL of the lysate was transferred from stimulation plates into the pre-coated antibody plates (384-well) from the Tropix kit. […] The plates were incubated at room temperature while shaking for 1 hour. […] The plates were tapped to dry. […] Signal for 1 sec/well in a Luminometer. (VICTOR-V) was measured.

[2] = excitation and emission spectra of Cy5 derivatives; assay type: physicochemical
Text: To evaluate whether digoxigenation of Cy5 alters its fluorescence features, we compared the excitation and emission spectra of Cy5 and compared it with the spectra of the newly generated Dig-Cy5 and with Dig-Cy5 within a complex with bispecific antibodies.

[3] = system: diet-induced obese (DIO) mice; assay: food intake in DIO (diet-induced-obesity) model; assay type: in vivo, C57Bl/6 mice; details: moPYY 11.05 μMol/kg, antibody-complexed DIG-moPYY 0.62 μMol/kg, up to 96 h post-dosing
Experimental: To determine the effect of NPY2-receptor agonists on food intake in these experiments we applied uncomplexed PYY-derived peptides and antibody complexed peptides to animals (adult male C57Bl/6 mice) in a DIO (diet-induced-obesity) model. The experiments were conducted on adult male C57Bl/6 mice obtained from Jackson laboratories. The mice were placed on a high fat diet (HFD; 60% of dietary kcal as fat, BioServe F3282) for over 20 weeks to induce obesity. The diet-induced obese (DIO) mice were sorted by body weight and 24 h food intake, and housed individually in standard caging at 22° C. in a reversed 12-h light/12-h dark cycle, and were acclimated to these conditions for at least 6 days before start of the experiment. Food (HFD) and water were provided ad libitum throughout the study. Ab-PYY3-37 fusion proteins and the vehicle controls were injected at the beginning of the dark cycle and food intake measured at various time intervals up to 96 h post-dosing (N=6-8 mice/group). Uncomplexed peptide moPYY was applied at concentration of 11.05 μMol/kg. Antibody-complexed DIG-moPYY was applied at a concentration of 0.62 μMol/kg. Thus, the injected molar concentration of the antibody complexed peptide was more than 17-fold lower than that of the uncomplexed peptide. […]

Compound: CC[C@H](C)[C@H](NC(C)=O)C(=O)N[C@@H](CCCCNC(=O)CCOCCOCCOCCNC(=O)CO[C@H]1CC[C@@]2(C)[C@H](CC[C@@H]3[C@@H]2C[C@@H](O)[C@]2(C)[C@@H](C4=CC(=O)OC4)CC[C@]32O)C1)C(=O)N1CCN(c2ccc3ncn(CC(=O)N[C@@H](CCCNC(=N)N)C(=O)N[C@@H](Cc4c[nH]cn4)C(=O)N[C@@H](Cc4ccc(O)cc4)C(=O)N[C@@H](CC(C)C)C(=O)N[C@@H](CC(N)=O)C(=O)N[C@@H](Cc4c[nH]c5ccccc45)C(=O)N[C@H](C(=O)N[C@H](C(=O)N[C@@H](CCCNC(=N)N)C(=O)N[C@@H](CCC(N)=O)C(=O)N(C)[C@@H](CCCNC(=N)N)C(=O)N[C@@H](Cc4ccc(O)cc4)C(N)=O)[C@@H](C)O)C(C)C)c(=O)c3c2)CC1 [DIG-moPYY]
- Dig-peptide signal in serum (Western Blot, in words) ([1]; 5 min after administration): only in trace amounts
- Dig-peptide signal in serum (Western Blot, in words) ([1]; later time points up to 24 hrs after administration): no defined peptide band are detectable
- IC50 (NPY2 receptor): 0.42 nM

Compound: CCN1/C(=C/C=C/C=C/C2=[N+](CCCCCC(=O)O)c3ccc(S(=O)(=O)O)cc3C2(C)C)C(C)(C)c2cc(S(=O)(=O)[O-])ccc21 [Cy5]
- Emission maximum [2]: 680 nm
- Excitation maximum [2]: 652 nm

Compound: CC[C@H](C)[C@H](NC(C)=O)C(=O)N[C@@H](CCCCNC(=O)CCOCCOCCOCCNC(=O)CO[C@H]1CC[C@@]2(C)[C@H](CC[C@@H]3[C@@H]2C[C@@H](O)[C@]2(C)[C@@H](C4=CC(=O)OC4)CC[C@]32O)C1)C(=O)N1CCN(c2ccc3ncn(CC(=O)N[C@@H](CCCNC(=N)N)C(=O)N[C@@H](Cc4c[nH]cn4)C(=O)N[C@@H](Cc4ccc(O)cc4)C(=O)N[C@@H](CC(C)C)C(=O)N[C@@H](CC(N)=O)C(=O)N[C@@H](Cc4c[nH]c5ccccc45)C(=O)N[C@H](C(=O)N[C@H](C(=O)N[C@@H](CCCNC(=N)N)C(=O)N[C@@H](CCC(N)=O)C(=O)N(C)[C@@H](CCCNC(=N)N)C(=O)N[C@@H](Cc4ccc(O)cc4)C(N)=O)[C@@H](C)O)C(C)C)c(=O)c3c2)CC1 [<Dig> DIGmoPYY]
- Dig-peptide signal in serum (Western Blot, in words) ([1]; 5 min after administration, listed as <DIG>-DIG-moPYY): strong signals
- Dig-peptide signal in serum (Western Blot, in words) ([1]; later time points up to 24 hrs after administration, listed as <DIG>-DIG-moPYY): still detectable with good signals
- biological activity in vitro compared to PEG-peptide (NPY2 receptor; cAMP assay): four fold better
- effect on food intake [3]: strikingly reduced the food-intake

From patent US20130280279A1, “PHARMACEUTICAL COMPOSITION OF A COMPLEX OF AN ANTI-DIG ANTIBODY AND DIGOXIGENIN THAT IS CONJUGATED TO A PEPTIDE” (HOFFMANN-LA ROCHE INC., priority 2011, published 2013)
